Literature values in article PMC8923172 (Antimicrobial Agents and Chemotherapy, 2022).

Test system: LPS-induced ALI
Details: 2 mg/kg; cited from earlier work

In the case of `C[C@@H]1C[C@H]2[C@@H]3CCC4=CC(=O)C=C[C@]4(C)[C@@]3(F)[C@@H](O)C[C@]2(C)[C@@]1(O)C(=O)CO` [dexamethasone], the “decrease in IFN-γ in bronchoalveolar lavage fluid” value is listed as ~43%, the “decrease in IL-6 in bronchoalveolar lavage fluid” value is listed as “approximately 26%” and the “decrease in IP-10 (CXCL10) in bronchoalveolar lavage fluid” value is listed as ~50%.
